Measured values published in PubChem BioAssay AID330 (DTP/NCI, 2004).
Where “and” joins values, the source holds several entries; their conditions need not be identical. Equal entries are not always repeated. Inconclusive results and toxic doses are left out.

Test system: P388 leukemia ip, CD2F1 mice, survival T/C
Test: NCI In Vivo Anticancer Drug Screen. Data for tumor model P388 Leukemia (intraperitoneal) in CD2F1 (CDF1) mice
Settings: endpoint: median survival time, higher = longer survival
In short: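 Mice carrying the transplanted tumor received test compound or vehicle. Survival was recorded in each group, and the value is the treated-group measurement divided by that of the vehicle-treated control group.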

[1] = dose: 60.0 mg/kg/injection, schedule: Q01DX005 (ip), vehicle: saline with Tween-80
[2] = dose: 240.0 mg/kg/injection, schedule: Q01DX005 (ip), vehicle: saline with Tween-80
[3] = dose: 100.0 mg/kg/injection, schedule: Q01DX009 (ip), vehicle: saline with Tween-80
[4] = dose: 200.0 mg/kg/injection, schedule: Q01DX009 (ip), vehicle: saline with Tween-80
[5] = dose: 400.0 mg/kg/injection, schedule: Q01DX009 (ip), vehicle: saline with Tween-80
[6] = dose: 50.0 mg/kg/injection, schedule: Q01DX005 (ip), vehicle: Klucel (hydroxypropylcellulose) (HPC)
[7] = dose: 100.0 mg/kg/injection, schedule: Q01DX005 (ip), vehicle: Klucel (hydroxypropylcellulose) (HPC)
[8] = dose: 200.0 mg/kg/injection, schedule: Q01DX005 (ip), vehicle: Klucel (hydroxypropylcellulose) (HPC)
[9] = dose: 25.0 mg/kg/injection, schedule: Q01DX005 (ip), vehicle: Klucel (hydroxypropylcellulose) (HPC)
[10] = dose: 50.0 mg/kg/injection, schedule: Q01DX005 (ip), vehicle: saline with Tween-80

For `Cc1ccc(S(=O)(=O)Nc2ccccc2N(CCNCCOS(=O)(=O)c2ccc(C)cc2)S(=O)(=O)c2ccc(C)cc2)cc1`, the T/C (dose: 100.0 mg/kg/injection, schedule: Q04DX002 (ip), vehicle: saline with Tween-80) was 96 % of control, the T/C (dose: 200.0 mg/kg/injection, schedule: Q04DX002 (ip), vehicle: saline with Tween-80) was 98 % of control and the T/C (dose: 400.0 mg/kg/injection, schedule: Q04DX002 (ip), vehicle: saline with Tween-80) was 91 % of control.
In the case of `COc1cc([C@@H]2c3cc4c(cc3C[C@@H]3COC(=O)C32)OCO4)cc(OC)c1O` (some centres undefined), the T/C [1] is reported as 100 % of control and 120 % of control and the T/C [2] is reported as 107 % of control.
In the case of `N#Cc1ccccc1-n1c(=O)c2cc3c(=O)n(-c4ccccc4C#N)c(=O)c3cc2c1=O`, the T/C (dose: 25.0 mg/kg/injection, schedule: Q01DX009 (ip), vehicle: saline with Tween-80) is reported as 100 % of control and 103 % of control, the T/C (dose: 50.0 mg/kg/injection, schedule: Q01DX009 (ip), vehicle: saline with Tween-80) is reported as 95 % of control and 97 % of control and the T/C [3] is reported as 100 % of control and 103 % of control. The T/C [4] was 102 % of control and 95 % of control and the T/C [5] was 100 % of control and 96 % of control.
`COC12C(COC(N)=O)C3=C(C(=O)C(C)=C(N4CC4)C3=O)N1CC1NC12` (centres undefined) was tested, and the T/C (dose: 0.13 mg/kg/injection, schedule: Q04DX003 (ip), vehicle: saline sonified) was 154 % of control, the T/C (dose: 0.25 mg/kg/injection, schedule: Q04DX003 (ip), vehicle: saline sonified) was 163 % of control and the T/C (dose: 0.33 mg/kg/injection, schedule: Q04DX003 (ip), vehicle: saline with Tween-80) was 91 % of control. For the same compound, the T/C (dose: 0.5 mg/kg/injection, schedule: Q04DX003 (ip), vehicle: saline sonified) was 181 % of control and the T/C (dose: 0.75 mg/kg/injection, schedule: Q04DX003 (ip), vehicle: saline with Tween-80) was 87 % of control.
For `CC(=O)NCC(C)C`, the T/C (dose: 100.0 mg/kg/injection, schedule: Q01DX001 (ip), vehicle: saline) was 100 % of control, the T/C (dose: 200.0 mg/kg/injection, schedule: Q01DX001 (ip), vehicle: saline) was 100 % of control and the T/C (dose: 400.0 mg/kg/injection, schedule: Q01DX001 (ip), vehicle: saline) was 100 % of control.
In the case of `Cc1[nH]n(-c2cc(S(=O)(=O)O)ccc2Cl)c(=O)c1N=Nc1ccc(C(=O)Nc2ccc(S(=O)(=O)O)cc2)cc1`, the T/C [6] is reported as 99 % of control, the T/C [7] is reported as 92 % of control and the T/C [8] is reported as 99 % of control.
`CN1COc2c(n(C)c(=O)[nH]c2=O)C1` was tested, and the T/C (dose: 50.0 mg/kg/injection, schedule: Q01DX005 (ip), vehicle: saline) was 102 % of control and 106 % of control and the T/C (dose: 100.0 mg/kg/injection, schedule: Q01DX005 (ip), vehicle: saline) was 114 % of control and 115 % of control.
In the case of `COc1cccc(N2C(=O)CSC2=S)c1`, the T/C (dose: 100.0 mg/kg/injection, schedule: Q04DX003 (ip), vehicle: saline with Tween-80) is reported as 95 % of control, the T/C (dose: 200.0 mg/kg/injection, schedule: Q04DX003 (ip), vehicle: saline with Tween-80) is reported as 100 % of control and the T/C (dose: 400.0 mg/kg/injection, schedule: Q04DX003 (ip), vehicle: saline with Tween-80) is reported as 90 % of control.
With `COc1ccc(OC)c(/C=C/c2ccc3ccccc3n2)c1` the T/C [3] was 90 % of control, the T/C [4] was 90 % of control and the T/C [5] was 104 % of control.
For `CCn1c(-c2ccc(OC(C)=O)cc2)c(C)c2cc(OC(C)=O)ccc21`, the T/C [9] was 100 % of control, the T/C [6] was 101 % of control and 102 % of control and the T/C [7] was 95 % of control and 97 % of control. The T/C [8] was 90 % of control and 96 % of control and the T/C (dose: 400.0 mg/kg/injection, schedule: Q01DX005 (ip), vehicle: Klucel (hydroxypropylcellulose) (HPC)) was 100 % of control.
In the case of `N=C(N)n1c(N)nc2ccccc2c1=O`, the T/C (dose: 12.0 mg/kg/injection, schedule: Q01DX005 (ip), vehicle: Klucel (hydroxypropylcellulose) (HPC)) is reported as 108 % of control, the T/C (dose: 12.5 mg/kg/injection, schedule: Q01DX005 (ip), vehicle: saline with Tween-80) is reported as 100 % of control and the T/C [9] is reported as 101 % of control. For the same compound, the T/C (dose: 25.0 mg/kg/injection, schedule: Q01DX005 (ip), vehicle: saline with Tween-80) was 104 % of control, the T/C [6] was 121 % of control and the T/C [10] was 97 % of control.
In the case of `CC/C=C\C/C=C\C/C=C\CCCCCCCC(=O)O`, the T/C (dose: 40.0 mg/kg/injection, schedule: Q01DX009 (ip), vehicle: Klucel (hydroxypropylcellulose) (HPC)) is reported as 92 % of control, the T/C (dose: 80.0 mg/kg/injection, schedule: Q01DX009 (ip), vehicle: Klucel (hydroxypropylcellulose) (HPC)) is reported as 100 % of control and the T/C (dose: 160.0 mg/kg/injection, schedule: Q01DX009 (ip), vehicle: Klucel (hydroxypropylcellulose) (HPC)) is reported as 98 % of control. The T/C (dose: 320.0 mg/kg/injection, schedule: Q01DX009 (ip), vehicle: Klucel (hydroxypropylcellulose) (HPC)) was 95 % of control.
`O=C1CSC(c2ccccc2O)N1c1nncs1` (centres undefined) was tested, and the T/C [10] was 94 % of control, the T/C (dose: 100.0 mg/kg/injection, schedule: Q01DX005 (ip), vehicle: saline with Tween-80) was 93 % of control and the T/C (dose: 200.0 mg/kg/injection, schedule: Q01DX005 (ip), vehicle: saline with Tween-80) was 93 % of control.
In the case of `COC(=O)C1(C(=O)OC)ON1C(C)C` (centres undefined), the T/C (dose: 60.0 mg/kg/injection, schedule: Q01DX005 (ip), vehicle: saline) is reported as 98 % of control, the T/C (dose: 120.0 mg/kg/injection, schedule: Q01DX005 (ip), vehicle: saline) is reported as 94 % of control and the T/C (dose: 240.0 mg/kg/injection, schedule: Q01DX005 (ip), vehicle: saline) is reported as 116 % of control.
In the case of `CNS(=O)(=O)c1c([N+](=O)[O-])ncn1C`, the T/C (dose: 12.5 mg/kg/injection, schedule: Q01DX009 (ip), vehicle: Klucel (hydroxypropylcellulose) (HPC)) is reported as 109 % of control, the T/C (dose: 25.0 mg/kg/injection, schedule: Q01DX009 (ip), vehicle: Klucel (hydroxypropylcellulose) (HPC)) is reported as 109 % of control and 115 % of control and the T/C (dose: 50.0 mg/kg/injection, schedule: Q01DX009 (ip), vehicle: Klucel (hydroxypropylcellulose) (HPC)) is reported as 113 % of control. For the same compound, the T/C (dose: 100.0 mg/kg/injection, schedule: Q01DX009 (ip), vehicle: Klucel (hydroxypropylcellulose) (HPC)) was 123 % of control.
With `Clc1cc(Cl)nc(N2CC2)n1` the T/C (dose: 5.0 mg/kg/injection, schedule: Q01DX009 (ip), vehicle: saline with Tween-80) was 116 % of control, the T/C (dose: 5.0 mg/kg/injection, schedule: Q04DX003 (ip), vehicle: saline with Tween-80) was 100 % of control and the T/C (dose: 10.0 mg/kg/injection, schedule: Q01DX009 (ip), vehicle: saline with Tween-80) was 100 % of control. The T/C (dose: 10.0 mg/kg/injection, schedule: Q04DX003 (ip), vehicle: saline with Tween-80) was 104 % of control and the T/C (dose: 20.0 mg/kg/injection, schedule: Q04DX003 (ip), vehicle: saline with Tween-80) was 118 % of control.
With `COc1ccc(Cc2coc3ccccc3c2=O)cc1OC` the T/C [1] was 102 % of control, the T/C (dose: 120.0 mg/kg/injection, schedule: Q01DX005 (ip), vehicle: saline with Tween-80) was 97 % of control and the T/C [2] was 97 % of control.
`CCn1c2ccccc2c2cc(N=C3C(=O)N(C)c4ccccc43)ccc21` was tested, and the T/C (dose: 60.0 mg/kg/injection, schedule: Q01DX005 (ip), vehicle: Klucel (hydroxypropylcellulose) (HPC)) was 90 % of control, the T/C (dose: 120.0 mg/kg/injection, schedule: Q01DX005 (ip), vehicle: Klucel (hydroxypropylcellulose) (HPC)) was 92 % of control and the T/C (dose: 240.0 mg/kg/injection, schedule: Q01DX005 (ip), vehicle: Klucel (hydroxypropylcellulose) (HPC)) was 90 % of control.
For `COc1cccc2c1C(=O)c1c(O)c3c(c(O)c1C2=O)CC(O)(C(C)=O)CC3OC1CC(N)C(OC2CC(N)C(O)C(C)O2)C(C)O1` (centres undefined), the T/C (dose: 0.39 mg/kg/injection, schedule: Q01DX009 (ip), vehicle: water) was 116 % of control, the T/C (dose: 1.56 mg/kg/injection, schedule: Q01DX009 (ip), vehicle: water) was 150 % of control and the T/C (dose: 3.13 mg/kg/injection, schedule: Q01DX009 (ip), vehicle: water) was 161 % of control and 196 % of control. For the same compound, the T/C (dose: 3.13 mg/kg/injection, schedule: Q04DX003 (ip), vehicle: water) was 112 % of control, the T/C (dose: 6.25 mg/kg/injection, schedule: Q01DX009 (ip), vehicle: water) was 113 % of control and 116 % of control and the T/C (dose: 6.25 mg/kg/injection, schedule: Q04DX003 (ip), vehicle: water) was 103 % of control. The T/C (dose: 12.5 mg/kg/injection, schedule: Q01DX009 (ip), vehicle: water) was 114 % of control and 86 % of control, the T/C (dose: 12.5 mg/kg/injection, schedule: Q04DX003 (ip), vehicle: water) was 103 % of control and the T/C (dose: 25.0 mg/kg/injection, schedule: Q04DX003 (ip), vehicle: water) was 121 % of control. The T/C (dose: 50.0 mg/kg/injection, schedule: Q04DX003 (ip), vehicle: water) was 112 % of control.
`CC(C)CC(NC(CCC(=O)O)C(=O)O)C(=O)O` (centres undefined) was tested, and the T/C (dose: 2.25 mg/kg/injection, schedule: Q01DX005 (ip), vehicle: saline) was 106 % of control, the T/C (dose: 4.5 mg/kg/injection, schedule: Q01DX005 (ip), vehicle: saline) was 106 % of control and the T/C (dose: 9.0 mg/kg/injection, schedule: Q01DX005 (ip), vehicle: saline) was 96 % of control. The T/C (dose: 18.0 mg/kg/injection, schedule: Q01DX005 (ip), vehicle: saline) was 104 % of control.
